Experimental data: paper doi:10.1101/2024.08.19.608619, “Discovery of potent SARS-CoV-2 nsp3 macrodomain inhibitors uncovers lack of translation to cellular antiviral response” (bioRxiv, 2024)
Read-outs that look alike come from different tables or passages of the source.

Assays:
[1] = molecular target: T1, SARS-CoV-2 nsp3-mac1 (Severe acute respiratory syndrome coronavirus 2, UniProt P0DTD1); assay: biochemical; type: biochemical; details: SARS-CoV-2 nsp3 macrodomain TR-FRET single point
[2] = molecular target: T1, SARS-CoV-2 nsp3-mac1; assay: biochemical; parameters: SARS-CoV-2 nsp3 macrodomain TR-FRET single point, per cent inhibition, n=2
[3] = read-out: perc_inhibition_mean, batch_name=ASAP-0000425-001
[4] = read-out: perc_inhibition_mean, batch_name=ASAP-0000281-001
[5] = read-out: perc_inhibition_mean, batch_name=ASAP-0000454-001
[6] = read-out: perc_inhibition_mean, batch_name=ASAP-0000419-001
[7] = read-out: perc_inhibition_mean, batch_name=ASAP-0000361-001
[8] = read-out: perc_inhibition_mean, batch_name=ASAP-0000301-001
[9] = read-out: perc_inhibition_mean, batch_name=ASAP-0000471-001
[10] = read-out: perc_inhibition_mean, batch_name=ASAP-0000334-001
[11] = read-out: perc_inhibition_mean, batch_name=ASAP-0000339-001
[12] = read-out: perc_inhibition_mean, batch_name=ASAP-0000246-001

COC[C@@H](Nc1ncnc2nc[nH]c12)c1ccc(C)o1 [ASAP-0000425]
perc_inhibition_mean ([1]; concentration 49.75 uM): -4.638%
perc_inhibition_mean ([1]; concentration 99.5 uM): 3.942%
inhibition at 49.75 µM [2, 3]: -4.64%
inhibition at 99.5 µM [2, 3]: 3.94%

CCC[C@@](C)(NC(=O)c1ncnc2[nH]ccc12)C(=O)OC [ASAP-0000082]
perc_inhibition_mean ([1]; concentration 50.0 uM): -6.621%
inhibition at 50 µM ([2]; read-out: perc_inhibition_mean, batch_name=ASAP-0000082-001): -6.62%

c1cnc([C@@H]2CCN(c3ncnc4[nH]ccc34)C2)cn1 [ASAP-0000054]
perc_inhibition_mean ([1]; concentration 50.0 uM): -1.697%
inhibition at 50 µM ([2]; read-out: perc_inhibition_mean, batch_name=ASAP-0000054-001): -1.7%

Cc1noc([C@@H]2CCCN(c3ncnc4[nH]ccc34)C2)n1 [ASAP-0000043]
perc_inhibition_mean ([1]; concentration 50.0 uM): 1.916%
inhibition at 50 µM ([2]; read-out: perc_inhibition_mean, batch_name=ASAP-0000043-001): 1.92%

O=C(Nc1cnc2[nH]ncc2c1)c1cc(C2CC2)[nH]c1C1CC1 [ASAP-0000079]
perc_inhibition_mean ([1]; concentration 50.0 uM): -23.613%
inhibition at 50 µM ([2]; read-out: perc_inhibition_mean, batch_name=ASAP-0000079-001): -23.6%

Cc1c(-c2cnc3nc[nH]c(=O)c3c2)ccc2[nH]ncc12 [ASAP-0000281]
perc_inhibition_mean ([1]; concentration 49.75 uM, n=2): -3.121%
perc_inhibition_mean ([1]; concentration 99.5 uM, n=2): -4.364%
inhibition at 49.75 µM [2, 4]: -3.12%
inhibition at 99.5 µM [2, 4]: -4.36%

CC(C)[C@@H]1[C@H](O)CCN1c1ncnc2[nH]ccc12 [ASAP-0000454]
perc_inhibition_mean ([1]; concentration 49.75 uM): 17.696%
perc_inhibition_mean ([1]; concentration 99.5 uM): 32.152%
inhibition at 49.75 µM [2, 5]: 17.7%
inhibition at 99.5 µM [2, 5]: 32.2%

O=C(c1nc(=O)[nH][nH]1)N1CCC(c2ccn3ncc(C(=O)N4CCCCC4)c3c2)CC1 [ASAP-0000419]
perc_inhibition_mean ([1]; concentration 49.75 uM): 23.445%
perc_inhibition_mean ([1]; concentration 99.5 uM): 34.579%
inhibition at 49.75 µM [2, 6]: 23.4%
inhibition at 99.5 µM [2, 6]: 34.6%

c1ccc(-c2nc(CNc3cccnc3)cs2)nc1 [ASAP-0000123]
perc_inhibition_mean ([1]; concentration 50.0 uM): -9.865%
inhibition at 50 µM ([2]; read-out: perc_inhibition_mean, batch_name=ASAP-0000123-001): -9.87%

CCc1nc(CN(C)c2nc(C)nc3[nH]ccc23)cs1 [ASAP-0000087]
perc_inhibition_mean ([1]; concentration 50.0 uM): -6.131%
inhibition at 50 µM ([2]; read-out: perc_inhibition_mean, batch_name=ASAP-0000087-001): -6.13%

CCN(Cc1nnc(C)o1)C(=O)c1cnn2ccc(C3CCN(C(=O)c4ccccc4)CC3)cc12 [ASAP-0000361]
perc_inhibition_mean ([1]; concentration 49.75 uM): 10.027%
perc_inhibition_mean ([1]; concentration 99.5 uM): -5.306%
inhibition at 49.75 µM [2, 7]: 10%
inhibition at 99.5 µM [2, 7]: -5.31%

C[C@@H]1CN(C(=O)c2ccc(NC(=O)Nc3ccccc3)cc2)CC(=O)N1 [ASAP-0000301]
perc_inhibition_mean ([1]; concentration 49.75 uM, n=2): -0.707%
perc_inhibition_mean ([1]; concentration 99.5 uM, n=2): 0.29%
inhibition at 49.75 µM [2, 8]: -0.707%
inhibition at 99.5 µM [2, 8]: 0.29%

CC(C)[C@@H](Nc1ncnc2[nH]ccc12)c1nc2ccccc2[nH]1 [ASAP-0000471]
perc_inhibition_mean ([1]; concentration 49.75 uM): 37.305%
perc_inhibition_mean ([1]; concentration 99.5 uM): 52.508%
inhibition at 49.75 µM [2, 9]: 37.3%
inhibition at 99.5 µM [2, 9]: 52.5%

O=C1C[C@@]2(CCCN(c3ncnc4[nH]ccc34)C2)CN1 [ASAP-0000094]
perc_inhibition_mean ([1]; concentration 50.0 uM): -2.451%
inhibition at 50 µM ([2]; read-out: perc_inhibition_mean, batch_name=ASAP-0000094-001): -2.45%

CC(C)OCCNC(=O)c1cc2c(=O)n3ccccc3nc2n1C [ASAP-0000071]
perc_inhibition_mean ([1]; concentration 50.0 uM): 14.037%
inhibition at 50 µM ([2]; read-out: perc_inhibition_mean, batch_name=ASAP-0000071-001): 14%

O=C(CCN(Cc1cccc(Cl)c1)C(=O)c1cnon1)N1CCNCC1 [ASAP-0000334]
perc_inhibition_mean ([1]; concentration 49.75 uM, n=2): -2.442%
perc_inhibition_mean ([1]; concentration 99.5 uM, n=2): -1.082%
inhibition at 49.75 µM [2, 10]: -2.44%
inhibition at 99.5 µM [2, 10]: -1.08%

CN(Cc1cn(C)nn1)C(=O)c1ccc(NC(=O)Nc2ccccc2)cc1 [ASAP-0000339]
perc_inhibition_mean ([1]; concentration 49.75 uM, n=2): 0.883%
perc_inhibition_mean ([1]; concentration 99.5 uM, n=2): 0.566%
inhibition at 49.75 µM [2, 11]: 0.883%
inhibition at 99.5 µM [2, 11]: 0.566%

Clc1cnc(OCCNc2ncnc3[nH]ccc23)c(Cl)c1 [ASAP-0000246]
perc_inhibition_mean ([1]; concentration 50.0 uM): -4.296%
perc_inhibition_mean ([1]; concentration 100.0 uM): -7.687%
inhibition at 50 µM [2, 12]: -4.3%
inhibition at 100 µM [2, 12]: -7.69%
